Measurements as given in paper PMC9939304 (Acta Pharmaceutica Sinica. B, 2022).
Where two headings read alike, the source gives them in different places. Marks after values point to notes of the source that are not given here.

What was measured:
OCT2 protein [1] = assay: OCT2 protein expression in Caco-2 cells; assay type: cell-based, human; details: 48 h; for Expressions of OCT2 protein, 5 bile salts tested: CDCA 100, CA 100, DCA 50, HDCA 100, GCA 100 μmol/L; for Expressions of OCT2 protein by FXR agonists: CDCA 100, bilirubin 50, GW4064 1 μmol/L
OCT2 protein [2] = assay: OCT2 protein expression in HK-2 cells; assay type: cell-based, human; details: 48 h; for Expressions of OCT2 protein by FXR agonists: CDCA 100, bilirubin 50, GW4064 1 μmol/L
OCT1 protein [3] = assay: OCT1 protein expression in HepG2 cells; assay type: cell-based, human; details: for Concentration-dependent effect on expressions of OCT1 protein: 48 h, CDCA 25, 50, 100 μmol/L, bilirubin 1, 10, 50 μmol/L
Oct1 protein [4] = assay: Oct1 protein expression in primarily cultured rat hepatocytes; assay type: cell-based; details: for Expressions of Oct1 protein: CDCA, bilirubin or GW4064
Oct2 protein [5] = assay: Oct2 protein expression in primarily cultured rat hepatocytes; assay type: cell-based; details: for Expressions of Oct2 protein: CDCA, bilirubin or GW4064
FXR [6] = target: T1, FXR (Homo sapiens, UniProt Q96RI1); assay type: cell-based; details: HK-2 cells
T1 sequence (Q96RI1 1-486): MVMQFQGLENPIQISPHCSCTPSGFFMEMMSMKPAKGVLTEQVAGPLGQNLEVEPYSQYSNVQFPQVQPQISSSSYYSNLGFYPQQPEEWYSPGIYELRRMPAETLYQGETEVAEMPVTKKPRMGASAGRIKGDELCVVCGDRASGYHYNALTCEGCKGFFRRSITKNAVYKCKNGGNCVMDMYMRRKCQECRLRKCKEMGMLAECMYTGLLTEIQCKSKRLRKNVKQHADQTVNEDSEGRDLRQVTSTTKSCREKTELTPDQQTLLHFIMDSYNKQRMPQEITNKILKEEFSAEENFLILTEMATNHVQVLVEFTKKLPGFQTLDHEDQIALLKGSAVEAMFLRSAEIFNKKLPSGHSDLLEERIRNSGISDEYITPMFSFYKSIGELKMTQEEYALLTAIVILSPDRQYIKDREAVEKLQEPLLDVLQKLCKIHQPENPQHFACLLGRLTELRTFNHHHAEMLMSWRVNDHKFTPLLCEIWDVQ

FXR protein = FXR protein expression in HK-2 cells; assay type: cell-based, human
Oct2/3 [7] = details: Sham rats
Oct2/3 [8] = target: T2, Oct2/3 (Rattus norvegicus, UniProt Q9R0W2); details: corticosterone 5 mg/kg ip, normal rats; iv metformin 10 mg/kg
T2 sequence (Q9R0W2 1-555): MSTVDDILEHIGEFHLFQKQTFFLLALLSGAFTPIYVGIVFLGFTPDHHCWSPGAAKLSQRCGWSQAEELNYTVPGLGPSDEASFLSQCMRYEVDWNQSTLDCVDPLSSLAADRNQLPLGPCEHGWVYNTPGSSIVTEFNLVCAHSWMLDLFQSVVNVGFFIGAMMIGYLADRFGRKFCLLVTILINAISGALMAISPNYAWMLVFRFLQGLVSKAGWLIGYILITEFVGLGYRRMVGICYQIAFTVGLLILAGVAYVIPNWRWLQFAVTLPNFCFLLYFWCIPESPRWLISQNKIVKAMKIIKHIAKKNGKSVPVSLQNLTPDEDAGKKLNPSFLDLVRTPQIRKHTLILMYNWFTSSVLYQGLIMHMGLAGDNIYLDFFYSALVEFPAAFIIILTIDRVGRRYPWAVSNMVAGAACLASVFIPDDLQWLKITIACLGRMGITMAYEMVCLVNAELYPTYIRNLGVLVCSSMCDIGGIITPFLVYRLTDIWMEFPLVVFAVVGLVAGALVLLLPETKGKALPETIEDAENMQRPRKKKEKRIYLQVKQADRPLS

[9] = thiamine 20 μg/mL perfusion
[10] = endogenous thiamine; BDL rats
Oct3 = target: T3, Oct3 (Rattus norvegicus, UniProt O88446); details: estradiol 1 μmol/L with metformin 50 μg/mL; Sham rats
T3 sequence (O88446 1-551): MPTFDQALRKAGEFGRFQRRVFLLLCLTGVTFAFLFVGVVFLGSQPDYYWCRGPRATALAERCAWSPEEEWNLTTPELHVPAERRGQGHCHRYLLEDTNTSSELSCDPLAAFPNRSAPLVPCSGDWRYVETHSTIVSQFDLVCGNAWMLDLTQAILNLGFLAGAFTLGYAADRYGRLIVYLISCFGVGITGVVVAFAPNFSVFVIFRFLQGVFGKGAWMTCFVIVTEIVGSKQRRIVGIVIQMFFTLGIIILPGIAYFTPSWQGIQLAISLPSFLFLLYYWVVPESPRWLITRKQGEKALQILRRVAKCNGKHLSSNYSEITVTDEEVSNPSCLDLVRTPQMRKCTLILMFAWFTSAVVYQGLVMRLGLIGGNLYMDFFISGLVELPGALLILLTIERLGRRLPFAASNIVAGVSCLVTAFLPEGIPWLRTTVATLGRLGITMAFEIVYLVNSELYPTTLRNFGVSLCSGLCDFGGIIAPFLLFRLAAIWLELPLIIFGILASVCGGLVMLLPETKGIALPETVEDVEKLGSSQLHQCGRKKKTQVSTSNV

FXR [11] = target: T1, FXR; assay type: cell-based; details: HepG2 cell
Oct2 = assay type: in vivo, rat; details: stigmasterol 200 mg/kg qd plus CDCA 180 mg/kg qd oral, 14 days
[12] = assay type: in vivo, rat; details: stigmasterol 200 mg/kg qd plus CDCA 180 mg/kg qd oral, 14 days
Oct1 = Oct1 (Rattus norvegicus, UniProt Q63089); assay: in vitro; details: probe metformin (100 μmol/L)
Oct1, sequence (Q63089 whole entry): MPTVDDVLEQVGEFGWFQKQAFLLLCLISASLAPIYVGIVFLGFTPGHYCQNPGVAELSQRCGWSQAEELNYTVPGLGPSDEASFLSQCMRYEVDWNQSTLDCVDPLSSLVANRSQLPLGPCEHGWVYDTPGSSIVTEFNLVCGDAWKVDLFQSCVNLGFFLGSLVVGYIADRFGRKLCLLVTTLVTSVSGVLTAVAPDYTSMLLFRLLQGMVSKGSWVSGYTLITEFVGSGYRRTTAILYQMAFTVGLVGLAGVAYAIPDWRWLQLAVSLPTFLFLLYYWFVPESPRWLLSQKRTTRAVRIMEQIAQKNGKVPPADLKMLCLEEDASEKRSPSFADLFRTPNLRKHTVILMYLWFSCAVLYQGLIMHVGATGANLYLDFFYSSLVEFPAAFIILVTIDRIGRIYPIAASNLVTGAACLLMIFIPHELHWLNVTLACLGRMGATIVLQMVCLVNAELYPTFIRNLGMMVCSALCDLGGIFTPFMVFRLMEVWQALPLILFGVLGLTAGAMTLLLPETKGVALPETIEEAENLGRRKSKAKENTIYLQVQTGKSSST

rat kidney slices = assay: Uptake of metformin by precision-cut kidney slices; assay type: in vitro ADME; details: metformin 50 μg/mL, 15 min, 37 °C; slices from BDL rats
[13] = oral metformin 40 mg/kg
Mate1 = assay: Renal Mate1 protein expression in treated rats; assay type: in vivo, rat; details: 14 days: CDCA 180 mg/kg qd oral
[14] = CON rats of CDCA study (Table S5)

SMILES: C[C@H](CCC(=O)O)[C@H]1CC[C@H]2[C@@H]3C[C@H](O)[C@@H]4C[C@H](O)CC[C@]4(C)[C@H]3CC[C@]12C [HDCA, Hyodeoxycholic acid]
- Expressions of OCT2 protein, 5 bile salts tested (OCT2 protein [1]): only CDCA remarkably induces

SMILES: CC(C)c1onc(-c2c(Cl)cccc2Cl)c1COc1ccc(/C=C/c2cccc(C(=O)O)c2)c(Cl)c1 [GW4064]
- Expressions of OCT2 protein by FXR agonists (OCT2 protein [1]): induce expressions of OCT2 protein
- Expressions of OCT2 protein by FXR agonists (OCT2 protein [2]): increase expressions of OCT2 protein
- Expressions of OCT1 protein (OCT1 protein [3]; GW4064): also downregulates
- Expressions of Oct1 protein (Oct1 protein [4]): downregulate expressions of Oct1 protein
- Expressions of Oct2 protein (Oct2 protein [5]): upregulate expressions of Oct2 protein

SMILES: C[C@H](CCC(=O)O)[C@H]1CC[C@H]2[C@@H]3CC[C@@H]4C[C@H](O)CC[C@]4(C)[C@H]3C[C@H](O)[C@]12C [DCA, Eeoxycholic acid]
- Expressions of OCT2 protein, 5 bile salts tested (OCT2 protein [1]): only CDCA remarkably induces

SMILES: C[C@H](CCC(=O)NCC(=O)O)[C@H]1CC[C@H]2[C@@H]3[C@H](O)C[C@@H]4C[C@H](O)CC[C@]4(C)[C@H]3C[C@H](O)[C@]12C [GCA, Glycocholic acid]
- Expressions of OCT2 protein, 5 bile salts tested (OCT2 protein [1]): only CDCA remarkably induces

SMILES: C[C@H](CCC(=O)NCC(=O)O)[C@H]1CC[C@H]2[C@@H]3[C@@H](O)[C@@H](O)[C@@H]4C[C@H](O)CC[C@]4(C)[C@H]3CC[C@]12C [MCA, glycine-β-muricholic acid]
- Effect on induction of OCT2 protein by bilirubin, CDCA and GW4064 (OCT2 protein [1]; MCA 100 μmol/L): remarkably attenuated
- Effect on increase of OCT2 protein by CDCA, bilirubin and GW4064 (OCT2 protein [2]; MCA 100 μmol/L): reversed
- Effect on decreases in OCT1 by CDCA, bilirubin and GW4064 (OCT1 protein [3]; MCA): remarkably reversed
- Effect on downregulation of Oct1 protein by CDCA, bilirubin and GW4064 (Oct1 protein [4]; MCA): remarkably attenuated
- Effect on upregulation of Oct2 protein by CDCA, bilirubin and GW4064 (Oct2 protein [5]; MCA): remarkably attenuated
- Expressions of FGF19 mRNA (FXR [6]; MCA): slight inhibits
- Expressions of SHP mRNA (FXR [6]; MCA): significantly downregulates

SMILES: C=CC1=C(C)/C(=C/c2[nH]c(Cc3[nH]c(/C=C4\NC(=O)C(C)=C4C=C)c(C)c3CCC(=O)O)c(CCC(=O)O)c2C)NC1=O [bilirubin]
- Expressions of OCT2 protein by FXR agonists (OCT2 protein [2]): increase expressions of OCT2 protein
- Concentration-dependent effect on expressions of OCT1 protein (OCT1 protein [3]): concentration-dependently downregulate
- Expressions of Oct1 protein (Oct1 protein [4]): downregulate expressions of Oct1 protein
- Expressions of Oct2 protein (Oct2 protein [5]): upregulate expressions of Oct2 protein
- Expressions of SHP and FGF19 mRNA (FXR [6]): significantly upregulate
- Expressions of FXR protein (FXR protein): can induce

SMILES: C[C@]12C[C@H](O)[C@H]3[C@@H](CCC4=CC(=O)CC[C@@]43C)[C@@H]1CC[C@@H]2C(=O)CO [corticosterone]
- Intestinal absorption (Peff) of metformin with inhibitor (Oct2/3 [7]; corticosterone 4 μmol/L with metformin 50 μg/mL): 60 % of control rats
- Effect on Peff values of thiamine (Oct2/3 [7]; corticosterone 4 μmol/L with thiamine 20 μg/mL): significantly decrease
- In vivo hepatic uptake clearance of metformin with corticosterone (Oct2/3 [8]): 50 % of CON rats

SMILES: Cc1ncc(C[n+]2csc(CCO)c2C)c(N)n1 [thiamine]
- Peff values of thiamine in BDL rats vs Sham [9]: significantly decrease
- Urinary excreted amount of thiamine during 6 h, BDL relative to Sham [10]: 187 % of Sham rats

SMILES: C[C@]12CC[C@@H]3c4ccc(O)cc4CC[C@H]3[C@@H]1CC[C@@H]2O [estradiol]
- Effect on Peff of metformin (Oct3): does not affect

SMILES: CC[C@H](/C=C/[C@@H](C)[C@H]1CC[C@H]2[C@@H]3CC=C4C[C@@H](O)CC[C@]4(C)[C@H]3CC[C@]12C)C(C)C [stigmasterol]
- Effect on upregulation of SHP and FGF19 mRNA by CDCA (FXR [11]; co-administration of stigmasterol with CDCA): significantly reversed
- mRNA expressions of SHP and FGF19, stigmasterol alone (FXR [11]; stigmasterol 100 μmol/L): little affects
- Effect on the increased expressions of intestinal Oct2 protein by CDCA (Oct2): attenuates
- Effect on CDCA-induced increase in levels of blood thiamine [12]: attenuated

SMILES: NCCc1ccc(O)c(O)c1 [dopamine]
- inhibition at 1.5 min, 20 μmol/L (Oct1; primary hepatocytes from BDL rats): 25.2%
- inhibition at 1.5 min, 20 μmol/L (Oct1; primary hepatocytes from Sham rats): 58.7%

SMILES: C[C@H](CCC(=O)O)[C@H]1CC[C@H]2[C@@H]3[C@H](O)C[C@@H]4C[C@H](O)CC[C@]4(C)[C@H]3C[C@H](O)[C@]12C [CA, Cholic acid]
- Expressions of OCT2 protein, 5 bile salts tested (OCT2 protein [1]): only CDCA remarkably induces

SMILES: CN(C)C(=N)N=C(N)N [metformin]
- Uptake of metformin in renal slice, BDL vs Sham (rat kidney slices): significantly increases
- V1 (BDL rat, same value as Sham): 102.99 mL
- V1 (Sham rat, 250 g, estimated from original data): 102.99 ^j mL
- AUC ([13]; CDCA-treated rats (Table S5)): 906.85 ± 52.16 µg·min/mL
- Cmax ([13]; CDCA-treated rats (Table S5)): 4360 ± 380 ng/mL
- AUC [13, 14]: 707.20 ± 30.01 µg·min/mL
- Cmax [13, 14]: 3190 ± 120 ng/mL

SMILES: C[C@H](CCC(=O)O)[C@H]1CC[C@H]2[C@@H]3[C@H](O)C[C@@H]4C[C@H](O)CC[C@]4(C)[C@H]3CC[C@]12C [CDCA, chenodeoxycholic acid]
- Concentration-dependent effect on expressions of OCT2 (OCT2 protein [1]; CDCA 25, 50, 100 μmol/L, bilirubin 10, 25, 50 μmol/L): concentration-dependently increase
- Expressions of OCT2 protein, 5 bile salts tested (OCT2 protein [1]): remarkably induces
- Expressions of OCT2 protein by FXR agonists (OCT2 protein [1]): induce expressions of OCT2 protein
- Expressions of OCT2 protein by FXR agonists (OCT2 protein [2]): increase expressions of OCT2 protein
- Concentration-dependent effect on expressions of OCT1 protein (OCT1 protein [3]): concentration-dependently downregulate
- Expressions of Oct1 protein (Oct1 protein [4]): downregulate expressions of Oct1 protein
- Expressions of Oct2 protein (Oct2 protein [5]): upregulate expressions of Oct2 protein
- Expressions of renal Mate1 protein in treated rats (Mate1): unaltered
